These results are taken from patent US20260001914A1, “MACROCYCLIC PEPTIDES TARGETING KRAS” (Merck Sharp & Dohme LLC, priority 2022, published 2026).

pEC50: −log10 of the molar value. *1 amine or outer side, *2 acyl side, *3 side chain or, on linkers, in order; H or OH if unused. Where a SMILES comes first, the peptide text is derived from it. Bridges are numbered along the chain shown (N, C = ends). [ ]: non-standard residue; d: D form. The star is where a group is joined. X48 = CCCC[C@@H](/C=C\[C@@H](Cc1cccnc1)C(=O)[*:2])N[*:1]; Phe(4-guanidino) = N=C(N)Nc1ccc(C[C@H](N)C(=O)O)cc1; Ala(pyrimidin-5-yl) = N[C@@H](Cc1cncnc1)C(=O)O; X36 = CN([C@@H](Cc1cnn(C)c1)C(=O)[*:2])[*:1]; X6 = O=C([C@H](Cc1cnn(C2COC2)c1)N[*:1])[*:2]; Ala(thiazol-5-yl) = N[C@@H](Cc1cncs1)C(=O)O; NMe3Pal(5-F) = CN[C@@H](Cc1cncc(F)c1)C(=O)O; Phe(4-CH2NH2) = NCc1ccc(C[C@H](N)C(=O)O)cc1; X42 = O=C([C@H](Cc1cc(F)ncc1F)N[*:1])[*:2]; X25 = O=C([C@H](Cc1ccc(F)nc1)N[*:1])[*:2]; Ethyl(2-pyrrolidin-1-yl) = C1CCN(CC*)C1; NMeArg(Me) = CNC(=N)NCCC[C@H](NC)C(=O)O; X30 = O=C([C@H](Cc1ncccc1F)N[*:1])[*:2]; Phe(2-CN) = N#Cc1ccccc1C[C@H](N)C(=O)O; X28 = O=C([C@H](Cc1ncccn1)N[*:1])[*:2]; 1Nal = N[C@@H](Cc1cccc2ccccc12)C(=O)O; Phe(2-F) = N[C@@H](Cc1ccccc1F)C(=O)O; NMe3Pal = CN[C@@H](Cc1cccnc1)C(=O)O; X1 = O=C(C12CC(CN[*:1])(C1)C2)[*:2]; Ala(cPr) = N[C@@H](CC1CC1)C(=O)O; NMeF = CN[C@@H](Cc1ccccc1)C(=O)O; PhLac = O=C(O)[C@@H](O)Cc1ccccc1; 3Pal = N[C@@H](Cc1cccnc1)C(=O)O; Gly(N(CH2)3NH2) = NCCCNCC(=O)O; d(αMeC) = C[C@@](N)(CS)C(=O)O; Ahp(2) = CCCCC[C@H](N)C(=O)O; Ala(CN) = N#CC[C@H](N)C(=O)O; Cba = N[C@@H](CC1CCC1)C(=O)O; hLeu = CC(C)CC[C@H](N)C(=O)O; αMeC = C[C@](N)(CS)C(=O)O; NMeA = CN[C@@H](C)C(=O)O; Nle = CCCC[C@H](N)C(=O)O

This assay deals with phosphorylation levels of ERK1/2 in AsPC-1 (homozygous KRAS-G12D) cells (Homo sapiens, UniProt P01116, G12D). Kind of assay: Cellular phospho-ERK assay in AsPC-1 cells (Alpha Screen), assay medium without fetal bovine serum.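 Further: signal taken as phospho-ERK over total ERK per well, both detected in one multiplex bead assay, EC50 from four-parameter logistic fit of dose-response curves.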 The class given is cell-based. As to conditions: phospho-ERK AlphaScreen, 18 h. (Alpha assays give light when donor and acceptor beads are brought close together.)
Sequence of phosphorylation levels of ERK1/2 in AsPC-1 (homozygous KRAS-G12D) cells (P01116 1-186 G12D): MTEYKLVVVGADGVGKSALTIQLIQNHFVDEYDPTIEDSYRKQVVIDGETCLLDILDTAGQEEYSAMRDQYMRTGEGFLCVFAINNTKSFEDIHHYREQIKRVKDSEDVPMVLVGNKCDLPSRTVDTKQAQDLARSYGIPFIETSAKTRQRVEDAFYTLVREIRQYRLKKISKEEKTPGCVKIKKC
Turning to `CCCCC[C@@H]1NC(=O)[C@H](Cc2ccc(OC)cc2)NC(=O)[C@H](CC2CCC2)NC(=O)[C@H](Cc2cncs2)NC(=O)[C@H](CCCNC(=N)N)NC(=O)[C@H](Cc2ccccc2)NC(=O)CSC[C@@](C)(C(N)=O)NC(=O)[C@H](Cc2ccccc2)N(C)C1=O` [compound 363, cyclo(F-R-TZAla-cBuA-TyrOMe-Ahp-NMeF-aMeCl-ClAc)] ({CH2CO}-FR[Ala(thiazol-5-yl)][Cba]Y(Me)[Ahp(2)][NMeF][αMeC]-NH2; thioether N-8), the pEC50 is less than 4.29. To `CCCC[C@@H]1NC(=O)[C@H](Cc2ccc(CN)cc2)NC(=O)[C@H](CCCNC(=N)N)NC(=O)[C@H](Cc2cccc3ccccc23)NC(=O)CSC[C@](C)(C(=O)O)NC(=O)[C@H](Cc2ccccc2)N(C)C(=O)[C@H](CCCC)NC(=O)[C@H](Cc2ccc(O)cc2)NC1=O` [compound 144, cyclo(1Nal-R-Phe4CH2NH2-Nle-Y-Nle-NMeF-daMeC-ClAc)] ({CH2CO}-[1Nal]R[Phe(4-CH2NH2)][Nle]Y[Nle][NMeF][d(αMeC)]-OH; thioether N-8) belongs less than 4.29; to `CCCCC[C@@H]1NC(=O)[C@H](Cc2ccc(OC)cc2)NC(=O)[C@H](CC2CCC2)NC(=O)[C@H](Cc2cc[nH]c(=O)c2)NC(=O)[C@H](CCCNC(=N)N)NC(=O)[C@H](Cc2ccccc2)NC(=O)CSC[C@@](C)(C(N)=O)NC(=O)[C@H](Cc2ccccc2)N(C)C1=O` [compound 368, cyclo(F-R-SCO4Pal-cBuA-TyrOMe-Ahp-NMeF-aMeCl-ClAc)], less than 4.29. For `CCCC[C@@H]1NC(=O)[C@H](Cc2cccnc2)NC(=O)[C@H](CCCNC(=N)N)NC(=O)[C@H](Cc2ccccc2)OC(=O)C23CC(CNC(=O)[C@H](Cc4ccccc4)N(C)C(=O)[C@H](CCCC)NC(=O)[C@H](Cc4ccccc4F)NC1=O)(C2)C3` [compound 212, cyclo(FLac-R-3Pal-Nle-Phe2F-Nle-NMeF-amBCP)] (cyclo([PhLac]R[3Pal][Nle][Phe(2-F)][Nle][NMeF][X1])), the pEC50 is 4.40.

`CC(C)CC[C@@H]1NC(=O)[C@H](Cc2cc(F)ncc2F)NC(=O)[C@H](CC2CC2)NC(=O)[C@H](Cc2cncnc2)NC(=O)[C@H](C)N(C)C(=O)[C@H](Cc2ccccc2)OC(=O)C23CC(CNC(=O)[C@H](Cc4ccccc4)N(C)C1=O)(C2)C3` [compound 280, cyclo(FLac-NMcA-PyrimAla-cPrA-4Pal25F2-hL-NMeF-amBCP)] (cyclo([Ala(cPr)][X42][hLeu][NMeF][X1][PhLac][NMeA][Ala(pyrimidin-5-yl)])) gave a pEC50 of 5.91. Compound `CCCCC[C@@H]1NC(=O)[C@H](Cc2ccc(OC)cc2)NC(=O)[C@H](CC2CCC2)NC(=O)[C@H](Cc2ccc(NC(=N)N)cc2)NC(=O)CN(CCCN)C(=O)[C@H](Cc2ccccc2)NC(=O)CSC[C@@](C)(C(N)=O)NC(=O)[C@H](Cc2ccccc2)N(C)C1=O` [compound 388, cyclo(F-NPrNH2G-Phe4Gn-cBuA-TyrOMe-Ahp-NMeF-aMeCl-ClAc)] ({CH2CO}-F[Gly(N(CH2)3NH2)][Phe(4-guanidino)][Cba]Y(Me)[Ahp(2)][NMeF][αMeC]-NH2; thioether N-8) had a pEC50 of less than 4.29. To `CCCCC[C@@H]1NC(=O)[C@H](Cc2ccc(OC)cc2)NC(=O)[C@H](CC2CCC2)NC(=O)[C@H](Cc2ccc(OCCN3CCCC3)cc2)NC(=O)[C@H](CCCNC(=N)N)NC(=O)[C@H](Cc2ccccc2)NC(=O)CSC[C@@](C)(C(N)=O)NC(=O)[C@H](Cc2ccccc2)N(C)C1=O` [compound 383, cyclo(F-R-TyrOEtPyr-cBuA-TyrOMe-Ahp-NMeF-aMeCl-ClAc)] ({CH2CO}-FRY(Ethyl(2-pyrrolidin-1-yl))[Cba]Y(Me)[Ahp(2)][NMeF][αMeC]-NH2; thioether N-8) belongs less than 4.29. For the compound `CCCC[C@@H]1NC(=O)[C@H](Cc2cccnc2)NC(=O)[C@H](CC#N)NC(=O)[C@H](Cc2ccccc2)OC(=O)C23CC(CNC(=O)[C@H](Cc4cccnc4)N(C)C(=O)[C@H](CCCC)NC(=O)[C@H](Cc4ccccc4F)NC1=O)(C2)C3` [compound 252, cyclo(FLac-AlaCN-3Pal-Nle-Phe2F-Nle-NMe3Pal-amBCP)] (cyclo([3Pal][Nle][Phe(2-F)][Nle][NMe3Pal][X1][PhLac][Ala(CN)])), the pEC50 was less than 4.29. Regarding `CC(C)CC[C@@H]1NC(=O)[C@H](Cc2ccccc2F)NC(=O)[C@H](CC2CC2)NC(=O)[C@H](Cc2cncnc2)NC(=O)[C@H](C)N(C)C(=O)[C@H](Cc2ccccc2)OC(=O)C23CC(CNC(=O)[C@H](Cc4cncc(F)c4)N(C)C1=O)(C2)C3` [compound 282, cyclo(FLac-NMeA-PyrimAla-cPrA-Phe2F-hL-NMe3Pal5F-amBCP)] (cyclo([Ala(cPr)][Phe(2-F)][hLeu][NMe3Pal(5-F)][X1][PhLac][NMeA][Ala(pyrimidin-5-yl)])), the pEC50 is 5.60. For `CCCC[C@@H]1NC(=O)[C@H](Cc2ccccc2F)NC(=O)[C@H](CC2CCC2)NC(=O)[C@H](Cc2cncnc2)NC(=O)[C@H](C)N(C)C(=O)[C@H](Cc2ccccc2)OC(=O)C23CC(CNC(=O)[C@H](Cc4cccnc4)N(C)C1=O)(C2)C3` [compound 125, cyclo(FLac-NMeA-PyrimAla-cBuA-Phe2F-Nle-NMe3Pal-amBCP)] (cyclo([Cba][Phe(2-F)][Nle][NMe3Pal][X1][PhLac][NMeA][Ala(pyrimidin-5-yl)])), the pEC50 was 4.35.

`CCCCC[C@@H]1NC(=O)[C@H](Cc2ccc(OC)cc2)NC(=O)[C@H](CC2CCC2)NC(=O)[C@H](Cc2ccc(N3CCC[C@@H]3CN)cc2)NC(=O)[C@H](CCCNC(=N)N)NC(=O)[C@H](Cc2ccccc2)NC(=O)CSC[C@@](C)(C(N)=O)NC(=O)[C@H](Cc2ccccc2)N(C)C1=O` [compound 391, cyclo(F-R~Phe4RamPyrr-cBuA-TyrOMe-Abp-NMeF-aMeCl-ClAc)] had a pEC50 of less than 4.29. Regarding `CCCCC[C@@H]1NC(=O)[C@H](Cc2ccccc2C#N)NC(=O)[C@H](CC2CCC2)NC(=O)[C@H](Cc2cccnc2)NC(=O)[C@H](CCCNC(=N)N)NC(=O)[C@H](Cc2ccccc2)NC(=O)CSC[C@@](C)(C(N)=O)NC(=O)[C@H](Cc2ccccc2)N(C)C1=O` [compound 375, cyclo(F-R-3Pal-cBuA-Phe2CN-Ahp-NMeF-aMeCl-ClAc)] ({CH2CO}-FR[3Pal][Cba][Phe(2-CN)][Ahp(2)][NMeF][αMeC]-NH2; thioether N-8), the pEC50 was less than 4.29. As for `CCCC[C@@H]1NC(=O)[C@H](Cc2ccc(F)nc2)NC(=O)[C@H](C)N(C)C(=O)[C@H](Cc2ccccc2)OC(=O)C23CC(CNC(=O)[C@H](Cc4ccccc4)N(C)C(=O)[C@H](CCCC)NC(=O)[C@H](Cc4ncccc4F)NC1=O)(C2)C3` [compound 228, cyclo(FLac-NMeA-4F3Pal-Nle-2Pal6F-Nle-NMeF-amBCP)] (cyclo([NMeA][X25][Nle][X30][Nle][NMeF][X1][PhLac])), the pEC50 was less than 4.29. To `CCCC[C@@H]1NC(=O)[C@H](Cc2cccnc2)NC(=O)[C@H](C)N(C)C(=O)[C@H](Cc2ccc(O)cc2)NC(=O)C23CC(CNC(=O)[C@H](Cc4cccnc4)N(C)C(=O)[C@H](CCCC)NC(=O)[C@H](Cc4ccccc4F)NC1=O)(C2)C3` [compound 168, cyclo(Y-NMeA-3Pal-Nle-Phe2F-Nle-NMe3Pal-amBCP)] (cyclo(Y[NMeA][3Pal][Nle][Phe(2-F)][Nle][NMe3Pal][X1])) belongs 4.33. Compound `CCCCC[C@@H]1NC(=O)[C@H](Cc2ccc(OC)cc2)NC(=O)[C@H](CC2CCC2)NC(=O)[C@H](Cc2ccc(NC(=N)N)cc2)NC(=O)[C@H](CCCNC(=N)NC)N(C)C(=O)[C@H](Cc2ccccc2)NC(=O)CSC[C@@](C)(C(N)=O)NC(=O)[C@H](Cc2ccccc2)N(C)C1=O` [compound 380, cyclo(F-NMeArgMe-Phe4Gn-cBuA-TyrOMe-Abp-NMeF-aMeCl-ClAc)] ({CH2CO}-F[NMeArg(Me)][Phe(4-guanidino)][Cba]Y(Me)[Ahp(2)][NMeF][αMeC]-NH2; thioether N-8) showed a pEC50 of less than 4.29. Under `CCCC[C@@H]1NC(=O)[C@H](Cc2cccnc2)NC(=O)[C@H](C)N(C)C(=O)[C@H](Cc2ccccc2)OC(=O)C23CC(CNC(=O)[C@H](Cc4cnn(C)c4)N(C)C(=O)[C@H](CCCC)NC(=O)[C@H](Cc4ccccc4F)NC1=O)(C2)C3` [compound 403, cyclo(FLac-NMeA-3Pal-Nle-Phe2F-Nle-NMeAla4PyzlMe-amBCP)] (cyclo([3Pal][Nle][Phe(2-F)][Nle][X36][X1][PhLac][NMeA])) stands 4.73; under `CON=C1C[C@@H](Cc2ccccc2)C(=O)N(C)[C@@H](C)C(=O)N[C@@H](Cc2cncnc2)C(=O)N[C@@H](CC2CC2)C(=O)N[C@@H](Cc2ccccc2F)C(=O)N[C@@H](CCC(C)(F)F)C(=O)N(C)[C@@H](Cc2ccccc2)C(=O)NCC23CC1(C2)C3` (single isomer, unassigned) [compound 178, cyclo(CPhe-NMeA-PyrimAla-cPrA-Phe2F-Nle3F2-NMeF-MeOximamBCP)], 6.89. To `CCCC[C@H]1/C=C\[C@@H](Cc2cccnc2)C(=O)NCC23CC(C2)(C3)C(=O)O[C@@H](Cc2ccccc2)C(=O)N(C)[C@@H](C)C(=O)N[C@@H](Cc2cncnc2)C(=O)N[C@@H](CCCC)C(=O)N[C@@H](Cc2ccccc2F)C(=O)N1` [SEQ ID NO: 137, cyclo(FLac-NMeA- PyrimAla-Nle-Phe2F- Nlecalken3Pal-amBCP)] (cyclo([NMeA][Ala(pyrimidin-5-yl)][Nle][Phe(2-F)][X48][X1][PhLac])) belongs 4.95; to `CC(C)CC[C@@H]1NC(=O)[C@H](Cc2ccccc2F)NC(=O)[C@H](CC2CC2)NC(=O)[C@H](Cc2cnn(C3COC3)c2)NC(=O)[C@H](C)N(C)C(=O)[C@H](Cc2ccccc2)OC(=O)C23CC(CNC(=O)[C@H](Cc4cccnc4)N(C)C1=O)(C2)C3` [compound 301, cyclo(FLac-NMeA-AlaPyz1Ox-cPrA-Phe2F-hL-NMe3Pal-amBCP)] (cyclo([Ala(cPr)][Phe(2-F)][hLeu][NMe3Pal][X1][PhLac][NMeA][X6])), 4.40; to `CC(C)CC[C@@H]1NC(=O)[C@H](Cc2ccccc2F)NC(=O)[C@H](CC2CC2)NC(=O)[C@H](Cc2ncccn2)NC(=O)[C@H](C)N(C)C(=O)[C@H](Cc2ccccc2)OC(=O)C23CC(CNC(=O)[C@H](Cc4ccccc4)N(C)C1=O)(C2)C3` [compound 281, cyclo(FLac-NMeA-2PyrimAla-cPrA-Phe2F-hL-NMeF-amBCP)] (cyclo([Ala(cPr)][Phe(2-F)][hLeu][NMeF][X1][PhLac][NMeA][X28])), 5.00.

As usually defined, the pEC50 is the EC50 on a negative log10 scale, so that one unit is a factor of ten. Read a low pEC50 as a high EC50.
